PMC5003625 (Journal of medicinal chemistry, 2016)

How the values were obtained:
[1] = target: EZH1 pentameric complex (EZH1:EED:SUZ12:RBBP4:AEBP2) (Homo sapiens, UniProt Q92800); assay: Methyltransferase activity assay; format: biochemical; conditions: for fold loss of potency for EZH1: relative to the parent compound 5
[2] = target: EZH2 trimeric complex (EZH2:EED:SUZ12) (Homo sapiens, UniProt Q15910); assay: Methyltransferase activity assay; format: biochemical; conditions: for fold loss of potency for EZH2: relative to the parent compound of the sentence (5, 24 or 53)
EZH2 trimeric complex (EZH2:EED:SUZ12), sequence (Q15910 whole entry): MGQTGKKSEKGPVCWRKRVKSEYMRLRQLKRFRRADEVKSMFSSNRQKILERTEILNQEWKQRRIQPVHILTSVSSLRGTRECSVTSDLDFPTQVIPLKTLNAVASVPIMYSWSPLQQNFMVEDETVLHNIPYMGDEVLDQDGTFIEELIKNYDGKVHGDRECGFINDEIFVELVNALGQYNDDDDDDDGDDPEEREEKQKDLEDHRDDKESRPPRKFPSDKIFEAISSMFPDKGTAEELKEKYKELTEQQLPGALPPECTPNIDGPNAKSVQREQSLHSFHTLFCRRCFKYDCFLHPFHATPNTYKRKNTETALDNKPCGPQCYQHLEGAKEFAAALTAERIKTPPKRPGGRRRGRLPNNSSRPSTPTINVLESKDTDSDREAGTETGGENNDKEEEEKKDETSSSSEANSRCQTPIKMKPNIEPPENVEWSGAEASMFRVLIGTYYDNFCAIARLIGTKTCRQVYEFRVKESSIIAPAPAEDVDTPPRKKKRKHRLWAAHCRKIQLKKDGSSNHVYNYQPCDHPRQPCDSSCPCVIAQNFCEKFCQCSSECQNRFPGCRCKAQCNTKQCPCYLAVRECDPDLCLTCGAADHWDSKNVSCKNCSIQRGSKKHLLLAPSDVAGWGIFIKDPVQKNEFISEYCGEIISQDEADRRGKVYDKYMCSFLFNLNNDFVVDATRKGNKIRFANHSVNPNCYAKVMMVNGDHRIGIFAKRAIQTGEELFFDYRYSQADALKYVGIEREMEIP
EZH2 trimeric complex (EZH2:EED:SUZ12), sequence (O75530 whole entry partner): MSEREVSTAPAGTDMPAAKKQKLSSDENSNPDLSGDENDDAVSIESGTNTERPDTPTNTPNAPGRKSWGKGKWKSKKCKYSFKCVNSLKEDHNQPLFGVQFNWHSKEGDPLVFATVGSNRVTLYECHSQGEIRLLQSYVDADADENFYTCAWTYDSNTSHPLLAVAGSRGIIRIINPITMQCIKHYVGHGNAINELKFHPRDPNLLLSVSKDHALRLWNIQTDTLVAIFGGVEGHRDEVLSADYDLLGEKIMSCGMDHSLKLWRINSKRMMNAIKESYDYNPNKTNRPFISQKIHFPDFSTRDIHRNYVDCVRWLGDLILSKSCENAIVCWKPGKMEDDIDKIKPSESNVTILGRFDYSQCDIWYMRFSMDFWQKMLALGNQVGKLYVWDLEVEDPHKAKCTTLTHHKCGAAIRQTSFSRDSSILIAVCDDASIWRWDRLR
EZH2 trimeric complex (EZH2:EED:SUZ12), sequence (Q15022 whole entry partner): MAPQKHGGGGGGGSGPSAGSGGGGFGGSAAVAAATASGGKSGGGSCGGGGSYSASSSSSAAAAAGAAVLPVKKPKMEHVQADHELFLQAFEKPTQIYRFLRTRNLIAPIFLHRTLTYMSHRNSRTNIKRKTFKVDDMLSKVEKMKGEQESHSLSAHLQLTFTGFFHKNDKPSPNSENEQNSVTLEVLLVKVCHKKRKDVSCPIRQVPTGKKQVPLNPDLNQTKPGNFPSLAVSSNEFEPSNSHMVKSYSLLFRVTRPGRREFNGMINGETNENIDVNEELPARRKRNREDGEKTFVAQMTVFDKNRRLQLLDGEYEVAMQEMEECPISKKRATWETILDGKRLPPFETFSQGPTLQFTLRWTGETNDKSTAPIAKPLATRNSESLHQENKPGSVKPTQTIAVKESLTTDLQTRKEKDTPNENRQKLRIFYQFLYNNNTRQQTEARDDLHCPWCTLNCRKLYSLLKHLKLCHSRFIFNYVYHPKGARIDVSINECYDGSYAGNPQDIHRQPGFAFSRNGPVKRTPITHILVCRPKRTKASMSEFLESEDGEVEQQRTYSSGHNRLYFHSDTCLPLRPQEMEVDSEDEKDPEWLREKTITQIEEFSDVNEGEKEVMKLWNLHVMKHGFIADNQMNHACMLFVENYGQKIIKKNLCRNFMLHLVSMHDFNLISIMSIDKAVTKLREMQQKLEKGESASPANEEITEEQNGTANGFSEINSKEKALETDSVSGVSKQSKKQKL

EZH1 pentameric complex (EZH1:EED:SUZ12:RBBP4:AEBP2), sequence (Q92800 whole entry): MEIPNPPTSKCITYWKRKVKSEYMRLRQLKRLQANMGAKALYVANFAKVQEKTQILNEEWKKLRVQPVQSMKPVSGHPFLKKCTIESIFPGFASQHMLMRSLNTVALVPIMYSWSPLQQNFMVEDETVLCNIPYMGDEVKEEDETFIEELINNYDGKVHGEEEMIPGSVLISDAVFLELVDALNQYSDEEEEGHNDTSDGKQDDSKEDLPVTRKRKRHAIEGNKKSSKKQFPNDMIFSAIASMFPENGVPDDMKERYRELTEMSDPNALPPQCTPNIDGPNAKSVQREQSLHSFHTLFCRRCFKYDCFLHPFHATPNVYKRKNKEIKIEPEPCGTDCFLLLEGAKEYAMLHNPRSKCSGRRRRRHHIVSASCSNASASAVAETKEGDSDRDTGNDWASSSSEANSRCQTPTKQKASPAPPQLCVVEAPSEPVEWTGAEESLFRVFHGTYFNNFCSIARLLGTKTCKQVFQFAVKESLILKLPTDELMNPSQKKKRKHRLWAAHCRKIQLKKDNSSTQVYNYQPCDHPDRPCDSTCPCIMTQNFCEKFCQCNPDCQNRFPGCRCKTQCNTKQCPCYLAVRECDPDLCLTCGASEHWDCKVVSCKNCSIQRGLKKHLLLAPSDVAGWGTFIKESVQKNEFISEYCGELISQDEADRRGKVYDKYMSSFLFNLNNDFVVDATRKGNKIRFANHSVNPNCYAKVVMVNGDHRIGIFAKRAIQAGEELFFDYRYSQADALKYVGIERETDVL
EZH1 pentameric complex (EZH1:EED:SUZ12:RBBP4:AEBP2), sequence (O75530 whole entry partner): as the sequence (O75530 whole entry partner) above
EZH1 pentameric complex (EZH1:EED:SUZ12:RBBP4:AEBP2), sequence (Q15022 whole entry partner): as the sequence (Q15022 whole entry partner) above
EZH1 pentameric complex (EZH1:EED:SUZ12:RBBP4:AEBP2), sequence (Q09028 whole entry partner): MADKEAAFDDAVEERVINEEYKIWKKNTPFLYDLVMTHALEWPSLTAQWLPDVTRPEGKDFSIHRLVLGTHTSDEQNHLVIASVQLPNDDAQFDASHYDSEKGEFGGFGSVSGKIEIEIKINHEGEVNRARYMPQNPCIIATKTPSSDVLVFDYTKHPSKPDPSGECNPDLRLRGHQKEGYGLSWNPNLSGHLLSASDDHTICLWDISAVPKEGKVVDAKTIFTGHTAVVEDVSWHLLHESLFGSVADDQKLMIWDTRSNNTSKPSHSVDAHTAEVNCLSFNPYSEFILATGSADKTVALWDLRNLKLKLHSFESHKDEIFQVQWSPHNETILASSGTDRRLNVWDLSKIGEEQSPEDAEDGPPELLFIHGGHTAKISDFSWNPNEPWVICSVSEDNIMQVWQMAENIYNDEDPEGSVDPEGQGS
EZH1 pentameric complex (EZH1:EED:SUZ12:RBBP4:AEBP2), sequence (Q6ZN18 whole entry partner): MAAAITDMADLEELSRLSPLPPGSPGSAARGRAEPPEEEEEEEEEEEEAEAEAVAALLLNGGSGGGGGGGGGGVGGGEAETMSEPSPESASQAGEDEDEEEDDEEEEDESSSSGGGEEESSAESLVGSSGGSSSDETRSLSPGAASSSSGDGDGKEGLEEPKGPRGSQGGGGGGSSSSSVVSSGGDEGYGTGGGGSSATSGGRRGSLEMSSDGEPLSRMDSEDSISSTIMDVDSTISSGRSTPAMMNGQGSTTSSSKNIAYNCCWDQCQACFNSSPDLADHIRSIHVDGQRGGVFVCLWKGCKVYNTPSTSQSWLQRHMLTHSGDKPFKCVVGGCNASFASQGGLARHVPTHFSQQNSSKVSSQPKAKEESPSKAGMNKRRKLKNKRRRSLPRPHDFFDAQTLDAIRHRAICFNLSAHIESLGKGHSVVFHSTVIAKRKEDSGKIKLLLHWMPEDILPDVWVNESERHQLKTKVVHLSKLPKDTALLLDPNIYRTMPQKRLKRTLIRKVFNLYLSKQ

SMILES	inhibitory activity against EZH1, in words [1]	inhibitory activity against EZH2, in words [2]	also measured
CCc1cc(C)[nH]c(=O)c1CNC(=O)c1cc(-c2ccc(N3CCN(C(C)C)CC3)nc2)cc2c1cnn2C(C)C [Compound 25, N-((4-Ethyl-6-methyl-2-oxo-1,2-dihydropyridin-3-yl)methyl)-1-isopropyl-6-(6-(4-isopropylpiperazin-1-yl)pyridin-3-yl)-1H-indazole-4-carboxamide]	–	–	fold increase in EZH1 potency ([1]; relative to compound 24): more than 3 fold
CCc1cc(C)c(CNC(=O)c2cc(-c3ccc(N4CCN(C(C)C)CC4)nc3)cc3c2cnn3C(C)C)c(=O)[nH]1 [Compound 30, N-((6-Ethyl-4-methyl-2-oxo-1,2-dihydropyridin-3-yl)methyl)-1-isopropyl-6-(6-(4-isopropylpiperazin-1-yl)pyridin-3-yl)-1H-indazole-4-carboxamide]	did not exhibit appreciable inhibitory activity	–	–
CCC(C)c1cc(C)c(CNC(=O)c2cc(-c3ccc(N4CCN(C(C)C)CC4)nc3)cc3c2cnn3C(C)C)c(=O)[nH]1 (stereo not shown) [Compound 31, N-((6-(sec-Butyl)-4-methyl-2-oxo-1,2-dihydropyridin-3-yl)-methyl)-1-isopropyl-6-(6-(4-isopropylpiperazin-1-yl)pyridin-3-yl)-1H-indazole-4-carboxamide]	did not exhibit appreciable inhibitory activity	–	–
Cc1cc(C(C)(C)C)[nH]c(=O)c1CNC(=O)c1cc(-c2ccc(N3CCN(C(C)C)CC3)nc2)cc2c1cnn2C(C)C [Compound 32, N-((6-(tert-Butyl)-4-methyl-2-oxo-1,2-dihydropyridin-3-yl)-methyl)-1-isopropyl-6-(6-(4-isopropylpiperazin-1-yl)pyridin-3-yl)-1H-indazole-4-carboxamide]	complete loss of potency	complete loss of potency	–
Cc1cc(-c2ccccc2)[nH]c(=O)c1CNC(=O)c1cc(-c2ccc(N3CCN(C(C)C)CC3)nc2)cc2c1cnn2C(C)C [Compound 33, 1-Isopropyl-6-(6-(4-isopropylpiperazin-1-yl)pyridin-3-yl)-N-((4-methyl-2-oxo-6-phenyl-1,2-dihydropyridin-3-yl)methyl)-1H-inda-zole-4-carboxamide]	complete loss of potency	complete loss of potency	–
CC(C)N1CCN(c2ccc(-c3cc(C(=O)NCc4ccc[nH]c4=O)c4cnn(C(C)C)c4c3)cn2)CC1 [Compound 34, 1-Isopropyl-6-(6-(4-isopropylpiperazin-1-yl)pyridin-3-yl)-N-((2-oxo-1,2-dihydropyridin-3-yl)methyl)-1H-indazole-4-carboxamide]	–	–	fold loss of potency for EZH2 [2]: > 500 fold
Cc1cc(O)c(CNC(=O)c2cc(-c3ccc(N4CCN(C(C)C)CC4)nc3)cc3c2cnn3C(C)C)c(=O)[nH]1 [Compound 39, N-((4-Hydroxy-6-methyl-2-oxo-1,2-dihydropyridin-3-yl)methyl)-1-isopropyl-6-(6-(4-isopropylpiperazin-1-yl)pyridin-3-yl)-1H-inda-zole-4-carboxamide]	total loss of potency	total loss of potency	–
Cc1ncc(CNC(=O)c2cc(-c3ccc(N4CCN(C(C)C)CC4)nc3)cc3c2cnn3C(C)C)c(=O)[nH]1 [Compound 40, 1-Isopropyl-6-(6-(4-isopropylpiperazin-1-yl)pyridin-3-yl)-N-((2-methyl-6-oxo-1,6-dihydropyrimidin-5-yl)methyl)-1H-indazole-4-carboxamide]	completely abrogated inhibitory activity	completely abrogated inhibitory activity	–
CC(C)N1CCN(c2ccc(-c3cc(C(=O)NCc4cnc[nH]c4=O)c4cnn(C(C)C)c4c3)cn2)CC1 [Compound 41, 1-Isopropyl-6-(6-(4-isopropylpiperazin-1-yl)pyridin-3-yl)-N-((6-oxo-1,6-dihydropyrimidin-5-yl)methyl)-1H-indazole-4-carboxamide]	completely abrogated inhibitory activity	completely abrogated inhibitory activity	–
Cc1[nH]c(=O)[nH]c(=O)c1CNC(=O)c1cc(-c2ccc(N3CCN(C(C)C)CC3)nc2)cc2c1cnn2C(C)C [Compound 42, 1-Isopropyl-6-(6-(4-isopropylpiperazin-1-yl)pyridin-3-yl)-N-((6-methyl-2,4-dioxo-1,2,3,4-tetrahydropyrimidin-5-yl)methyl)-1H-in-dazole-4-carboxamide]	completely abrogated inhibitory activity	completely abrogated inhibitory activity	–
CC(C)N1CCN(c2ccc(-c3cc(C(=O)NC4CC(C)(C)NC(C)(C)C4)c4cnn(C(C)C)c4c3)cn2)CC1 [Compound 43, 1-Isopropyl-6-(6-(4-isopropylpiperazin-1-yl)pyridin-3-yl)-N-(2,2,6,6-tetramethylpiperidin-4-yl)-1H-indazole-4-carboxamide]	complete loss of potency	complete loss of potency	–
CCCc1cc(C)[nH]c(=O)c1CNC(=O)c1cc(-c2ccc(N3CCN(C(C)C)CC3)nc2)cc2nn(C(C)C)cc12 [Compound 44, 2-Isopropyl-6-(6-(4-isopropylpiperazin-1-yl)pyridin-3-yl)-N-((6-methyl-2-oxo-4-propyl-1,2-dihydropyridin-3-yl)methyl)-2H-inda-zole-4-carboxamide]	–	–	fold loss of potency for EZH2 [2]: more than 30 fold; fold loss of potency for EZH1 [1]: more than 30 fold
CCCc1cc(C)[nH]c(=O)c1CNC(=O)c1nn(C(C)C)c2cc(-c3ccc(N4CCN(C(C)C)CC4)nc3)ccc12 [Compound 45, 1-Isopropyl-6-(6-(4-isopropylpiperazin-1-yl)pyridin-3-yl)-N-((6-methyl-2-oxo-4-propyl-1,2-dihydropyridin-3-yl)methyl)-1H-inda-zole-3-carboxamide]	obliterated the inhibitory activity	obliterated the inhibitory activity	–
CCCc1cc(C)[nH]c(=O)c1CNC(=O)c1nn(C(C)C)c2ccc(-c3ccc(N4CCN(C(C)C)CC4)nc3)cc12 [Compound 46, 1-Isopropyl-5-(6-(4-isopropylpiperazin-1-yl)pyridin-3-yl)-N-((6-methyl-2-oxo-4-propyl-1,2-dihydropyridin-3-yl)methyl)-1H-inda-zole-3-carboxamide]	complete loss of potency	complete loss of potency	–
CCCc1cc(C)[nH]c(=O)c1CNC(=O)c1cc(-c2ccc(N3CCN(C(C)C)CC3)nc2)c2cnn(C(C)C)c2c1 [Compound 47, 1-Isopropyl-4-(6-(4-isopropylpiperazin-1-yl)pyridin-3-yl)-N-((6-methyl-2-oxo-4-propyl-1,2-dihydropyridin-3-yl)methyl)-1H-inda-zole-6-carboxamide]	abolished all EZH1 inhibition	–	–
CCCc1cc(C)[nH]c(=O)c1CNC(=O)c1cc(-c2ccc(N3CCN(C(C)C)CC3)nc2)cc2c1cnn2CC1CCCC1 [Compound 58, 1-(Cyclopentylmethyl)-6-(6-(4-isopropylpiperazin-1-yl)pyridin-3-yl)-N-((6-methyl-2-oxo-4-propyl-1,2-dihydropyridin-3-yl)methyl)-1H-indazole-4-carboxamide]	–	–	fold loss of potency for EZH2 [2]: > 15 fold
CCCc1cc(C)[nH]c(=O)c1CNC(=O)c1cc(-c2ccc(N3CCN(C(C)C)CC3)nc2)cc2c1cnn2CC1CCCCC1 [Compound 59, 1-(Cyclohexylmethyl)-6-(6-(4-isopropylpiperazin-1-yl)pyridin-3-yl)-N-((6-methyl-2-oxo-4-propyl-1,2-dihydropyridin-3-yl)methyl)-1H-indazole-4-carboxamide]	–	significant drop in potency	–
CCCc1cc(C)[nH]c(=O)c1CNC(=O)c1cc(-c2ccc(N3CCN(C(C)C)CC3)nc2)cc2c1cnn2CCC1CCCCC1 [Compound 62, 1-(2-Cyclohexylethyl)-6-(6-(4-isopropylpiperazin-1-yl)pyridin-3-yl)-N-((6-methyl-2-oxo-4-propyl-1,2-dihydropyridin-3-yl)methyl)-1H-indazole-4-carboxamide]	–	significant drop in potency	–
CCCc1cc(C)[nH]c(=O)c1CNC(=O)c1cc(-c2ccccc2)cc2c1cnn2C(C)C [Compound 66, 1-Isopropyl-N-((6-methyl-2-oxo-4-propyl-1,2-dihydropyridin-3-yl)methyl)-6-phenyl-1H-indazole-4-carboxamide]	–	relatively good potency	–
CCCc1cc(C)[nH]c(=O)c1CNC(=O)c1cc(-c2ccc(F)cc2)cc2c1cnn2C(C)C [Compound 67]	–	relatively good potency	–
CCCc1cc(C)[nH]c(=O)c1CNC(=O)c1cc(-c2ccc(C(F)(F)F)cc2)cc2c1cnn2C(C)C [Compound 68, 1-Isopropyl-N-((6-methyl-2-oxo-4-propyl-1,2-dihydropyridin-3-yl)methyl)-6-(4-(trifluoromethyl)phenyl)-1H-indazole-4-carboxa-mide]	–	relatively good potency	–
CCCc1cc(C)[nH]c(=O)c1CNC(=O)c1cc(C2CCNCC2)cc2c1cnn2C(C)C [Compound 72, 1-Isopropyl-N-((6-methyl-2-oxo-4-propyl-1,2-dihydropyridin-3-yl)methyl)-6-(piperidin-4-yl)-1H-indazole-4-carboxamide]	–	–	fold loss of potency for EZH1 [1]: more than 10 fold
CCCc1cc(C)[nH]c(=O)c1CNC(=O)c1cc(N2CCNCC2)cc2c1cnn2C(C)C [Compound 73, 1-Isopropyl-N-((6-methyl-2-oxo-4-propyl-1,2-dihydropyridin-3-yl)methyl)-6-(piperazin-1-yl)-1H-indazole-4-carboxamide]	–	–	fold loss of potency for EZH1 [1]: more than 10 fold
CCCc1cc(C)[nH]c(=O)c1CNC(=O)c1cc(Br)cc2c1cnn2C(C)C [Compound 76, 6-Bromo-1-isopropyl-N-((6-methyl-2-oxo-4-propyl-1,2-dihydro-pyridin-3-yl)methyl)-1H-indazole-4-carboxamide]	–	–	fold loss of potency for EZH2 [2]: 3–4 fold
